Measurements published in patent US5679671A, “Amino acid derivative” (Eisai Co., Ltd., priority 1993, dated 1997).

Legend:
NEP = biological target: T1, NEP (Rattus norvegicus, UniProt P07861); assay: NEP inhibition activity (Experiment F-1); assay type: biochemical; design: membrane fraction prepared from rat renal cortex; from tissue; host or cells: rat renal cortex, membrane fraction (method of Booth and Kenny); conditions: rat renal cortex membrane fraction
T1 sequence (P07861 1-750): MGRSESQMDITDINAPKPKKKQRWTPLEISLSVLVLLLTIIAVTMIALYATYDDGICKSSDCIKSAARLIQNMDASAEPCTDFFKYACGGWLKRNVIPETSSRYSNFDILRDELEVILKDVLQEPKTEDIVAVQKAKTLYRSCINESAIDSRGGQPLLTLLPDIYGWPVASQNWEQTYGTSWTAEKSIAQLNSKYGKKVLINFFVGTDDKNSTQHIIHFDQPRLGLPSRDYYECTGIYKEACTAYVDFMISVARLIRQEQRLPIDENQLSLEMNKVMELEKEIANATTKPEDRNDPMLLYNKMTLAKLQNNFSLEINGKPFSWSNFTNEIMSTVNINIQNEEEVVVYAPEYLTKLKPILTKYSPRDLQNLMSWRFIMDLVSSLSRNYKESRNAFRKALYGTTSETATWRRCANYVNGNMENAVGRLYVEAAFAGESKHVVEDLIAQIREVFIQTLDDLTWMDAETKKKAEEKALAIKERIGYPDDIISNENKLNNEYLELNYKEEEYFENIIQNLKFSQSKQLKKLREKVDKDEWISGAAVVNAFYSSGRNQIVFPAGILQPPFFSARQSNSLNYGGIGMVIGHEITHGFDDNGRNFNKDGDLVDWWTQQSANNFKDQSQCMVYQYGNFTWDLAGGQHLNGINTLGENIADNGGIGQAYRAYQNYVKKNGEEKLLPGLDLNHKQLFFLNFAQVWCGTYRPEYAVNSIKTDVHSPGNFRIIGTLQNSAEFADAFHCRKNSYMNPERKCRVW
Experimental: As a source of the enzyme NEP, a membrane fraction prepared from rat renal cortex in accordance with the method of Booth and Kenny (A Rapid Method for the Purification of Microvilli from Rabbit Kidney., Andrew G. Booth and A. John Kenny, Biochem. j., 1974, 142, 575-581.) was employed. The NEP activity was determined in accordance with the method of Orlowsky and Wilk (Purification and Specificity of a Membrane-Bound Metalloendpeptidase from Bovine Pituitaries., Marian Orlowsky and Shrwin Wilk, Biochemistry, 1981, 20, 4942-4950.). Now the procedure will be briefly described.
As a substrate, benzoyl-glycyl-arginyl-arginyl-2-naphthylamide (benzoyl-Gly-Arg-Arg-2-naphthylamide (Nova Biochem, Switzerland)) was used. In the presence of an NEP enzyme preparation and excessive leucine aminopeptidase (sigma chemical Co., U.S.A.), the liberated naphthylamine was made to undergo color development with first garnet (Sigma chemical Co., U.S.A.), followed by the measurement of the absorbance at a wavelength of 540 nm.
(§1) With respect to the NEP inhibition activity and the ACE inhibition activity, the inhibitor was added to the assay systems of both enzyme activities as described above in such a manner as to give the final concentrations of 1, 3, 10, 30, 100, 300 and 1000 inhibition curves were prepared, and then the concentration at which 50% inhibition was achieved was taken as IC50.

ACE = biological target: T2, ACE (Rattus norvegicus, UniProt P47820); assay: ACE inhibition activity (Experiment F-1); assay type: biochemical; conditions: rat lung membrane fraction, pH 8.3
T2 construct: membrane fraction prepared from rat lung; from tissue; host or cells: rat lung, membrane fraction (method of Wu-Wong et al.)
T2 sequence (P47820 36-1313): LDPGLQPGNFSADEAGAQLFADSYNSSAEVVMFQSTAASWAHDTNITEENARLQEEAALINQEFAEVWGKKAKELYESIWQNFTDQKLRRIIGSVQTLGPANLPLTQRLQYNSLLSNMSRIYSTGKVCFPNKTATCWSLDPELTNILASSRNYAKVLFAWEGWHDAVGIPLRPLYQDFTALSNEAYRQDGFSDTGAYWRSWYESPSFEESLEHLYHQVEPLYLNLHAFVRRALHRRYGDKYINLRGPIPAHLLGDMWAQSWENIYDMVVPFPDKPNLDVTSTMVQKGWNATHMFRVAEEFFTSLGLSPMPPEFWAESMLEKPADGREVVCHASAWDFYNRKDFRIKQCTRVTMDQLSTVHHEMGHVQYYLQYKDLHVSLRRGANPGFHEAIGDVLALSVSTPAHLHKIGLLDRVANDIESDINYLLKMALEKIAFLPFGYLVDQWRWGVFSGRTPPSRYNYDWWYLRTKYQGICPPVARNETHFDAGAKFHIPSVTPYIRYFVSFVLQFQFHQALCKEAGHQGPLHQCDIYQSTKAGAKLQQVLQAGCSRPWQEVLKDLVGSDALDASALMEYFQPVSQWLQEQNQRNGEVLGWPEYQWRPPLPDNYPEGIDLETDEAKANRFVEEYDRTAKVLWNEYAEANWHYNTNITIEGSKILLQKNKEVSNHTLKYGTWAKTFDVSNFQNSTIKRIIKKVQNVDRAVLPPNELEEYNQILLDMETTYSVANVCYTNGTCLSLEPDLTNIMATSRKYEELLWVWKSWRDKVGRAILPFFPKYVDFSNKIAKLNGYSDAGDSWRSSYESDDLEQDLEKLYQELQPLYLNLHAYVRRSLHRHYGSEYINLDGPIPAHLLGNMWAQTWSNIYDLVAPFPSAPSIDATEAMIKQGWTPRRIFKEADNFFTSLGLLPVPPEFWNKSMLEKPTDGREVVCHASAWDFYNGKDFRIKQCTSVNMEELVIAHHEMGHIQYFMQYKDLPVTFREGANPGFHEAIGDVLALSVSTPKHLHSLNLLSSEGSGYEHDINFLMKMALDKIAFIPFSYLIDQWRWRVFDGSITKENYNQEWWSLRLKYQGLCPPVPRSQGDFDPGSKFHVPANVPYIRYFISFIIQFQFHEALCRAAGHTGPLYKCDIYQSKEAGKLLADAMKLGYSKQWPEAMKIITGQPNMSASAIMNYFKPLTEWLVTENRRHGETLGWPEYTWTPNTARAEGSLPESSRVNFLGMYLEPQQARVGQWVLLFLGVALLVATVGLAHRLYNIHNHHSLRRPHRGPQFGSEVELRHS
Experimental: As a source of the enzyme ACE, a membrane fraction prepared from rat lung in accordance with the method of Wu-Wong et al. (Characterization of Endthelin Converting Enzyme in Rat Lung., Jinshyum R. Wu-Wong, Gerald P. Budzik, Edward M, Devine and Terry J. Opgenorth, Biochem. Biophys. Res. Commun., 1990, 171, 1291-1296.) was used. The ACE activity was determined with the use of a modification (modified to a borate buffer pH 8.3) of the method of Cushman and Cheung (Spectrophotometric Assay and Properties of the Angiotensin-Converting Enzyme of Rabbit Lung., Cushman D. W. and Cheung H. S., 1971, 20, 1637-1648.). Now the procedure will be briefly described.
In the presence of ACE, the hippurate liberated from hippuryl-histidyl-leucine (Hippuryl-His-Leu (Peptide Institute Inc., Japan)) was extracted with ethyl acetate and then the absorbance was measured at a wavelength of 228 nm.
as §1

IC50 (NEP) [nM] | IC50 (ACE) [nM] | SMILES
9 | 13 | O=C(N[C@H]1CCC[C@H]2SC[C@@H](C(=O)O)N2C1=O)[C@@H](S)Cc1cccs1 [Example F-22, [3R-[3α,6α(S*),9aβ]]-6-[[(S)-1-Oxo-2-thio-3-(2-thienyl)propyl]amino]-octahydro-5-oxothiazol-[3,2-a]azepine-3-carboxylic acid]
8 | 13 | CC[C@H](S)C(=O)N[C@H]1CCC[C@H]2SC[C@@H](C(=O)O)N2C1=O [Example F-24, [3R-[3α,6α(S*),9aβ]]-6-[(S)-1-Oxo-2-thiobutylamino]-octahydro-5-oxothiazol[3,2-a]azepine-3-carboxylic acid]
56.5 | 16 | O=C(N[C@H]1CCC[C@H]2SC[C@@H](C(=O)O)N2C1=O)[C@@H](S)Cc1ccc(-c2ccccc2)cc1 [Example F-20, [3R-[3α,6α(S*),9aβ]]-6-[[(S)-1-Oxo-2-thio-3-(1,4-biphenyl)propyl]amino]-octahydro-5-oxothiazol[3,2-a]azepine3-carboxylic acid]
104 | 13.5 | COc1ccc(C[C@H](S)C(=O)N[C@H]2CCC[C@H]3SC[C@@H](C(=O)O)N3C2=O)cc1 [Example F-19, [3R-[3α,6α(S*),9aβ]]-6-[[(S)-1-Oxo-2-thio-3-(4-methoxyphenyl)propyl]amino]-octahydro-5-oxothiazol-[3,2-a]azepine-3-carboxylic acid]
17.1 | 48 | O=C(O)CNC(=O)[C@@H](CS)Cc1ccc2c(c1)OCO2 [Comp cpd. F-1, N[1oxo-2(S)-mercaptomethyl-3-(3,4-methylenedioxy-phenyl)propyl]glycine, reference compound]
120 | 8 | CC[C@@H](C)[C@H](S)C(=O)N[C@H]1CCC[C@H]2SC[C@@H](C(=O)O)N2C1=O [Example F-23, [3R-[3α,6α(S*),9aβ]]-6-[[(S, 3R)-1-Oxo-2-thio-3-methylpentylamino]-octahydro-5-oxothiazol-[3,2-a]azepine-3-carboxylic acid]
5.6 | 7 | O=C(N[C@H]1CCC[C@H]2SC[C@@H](C(=O)O)N2C1=O)[C@@H](CS)Cc1ccccc1 [Example F-18, [3R-[3α,6α(S*),9aβ]]-6-[[(S)-1-Oxo-2-thiomethyl-3-phenylpropyl]amino]-octahydro-5-oxothiazol[3,2-a]-azepine-3-carboxylic acid]
265 | 9 | CC(C)[C@H](S)C(=O)N[C@H]1CCC[C@H]2SC[C@@H](C(=O)O)N2C1=O [Example F-25, [3R-[3α,6α(S*),9aβ]]-6-[(S)-1-Oxo-2-thio-3-methylbutylamino]-octahydro-5-oxothiazol[3,2-a]azepine-3-carboxylic acid]
22.5 | 7.7 | O=C(N[C@H]1CCC[C@H]2SC[C@@H](C(=O)O)N2C1=O)[C@@H](S)Cc1ccc(F)cc1 [Example F-14, [3R-[3α,6α(S*),9aβ]]-6[[(S)-1-Oxo-2-thio-3-(4-fluorophenyl)propyl]amino]-octahydro-5-oxothiazol [3,2-a]azepine-3-carboxylic acid]
